“And” between values parts separate entries of the source, which are not always exact repeats. Identical values can stand only once.
What was measured:
Assay in all cases: Post-emergence glasshouse herbicide test, visual phytotoxicity
Type in all cases: in vivo
Conditions in all cases: 13 days
[1] = test system: Abutilon threophrasti (ABUTH)
Procedure: (§1) Seeds of Setaria faberi (SETFA), Echinochloa crus-galli (ECHCG), Digitaria sanguinalis (DIGSA), Lolium perenne (LOLPE), Alopecurus myosuroides (ALOMY), Chenopodium album (CHEAL), Ipomoea hederacea (IPOHE), Stellaria media (STEME), Abutilon threophrasti (ABUTH) and Amaranthus retroflexus (AMARE) were sown in standard sterilised soil in pots. After cultivation for 8 days under controlled conditions in a glasshouse (at 24/19° C., day/night; 16 hours light; no humidity control), the plants were sprayed at 500 l/Ha with an aqueous spray solution derived from the formulation of the technical active ingredients in a small amount of acetone and a solvent and emulsifier mixture referred to as IF50 (11.12% Emulsogen EL360 TM+44.44% N-methylpyrrolidone+44.44% Dowanol DPM glycol ether), to create a 50 g/l solution which was then diluted using 0.2% Genapol X080 (CAS Number: 9043-30-5) as diluent to give the desired final dose of test compound.
(§2) Where active ingredients were applied as mixtures, aqueous spray solutions were prepared as above, containing both active ingredients.
(§3) The test plants were then grown under controlled conditions in a glasshouse (at 24/18° C., day/night; 15 hours light; 50% humidity) and watered twice daily. After 13 days, the test was evaluated visually for percentage phytotoxicity to the plants (where 100=total damage to plant; 0=no damage to plant; and NC=not captured) when compared to control untreated plants. Two to four replicates were applied for each treatment in a randomised block test design.
(§4) 22., E=X+Y−(X*Y/100), where • X=average percent phytotoxicity of herbicide A when applied at a certain rate • Y=average percent phytotoxicity using herbicide B when applied at a certain rate • E=the expected effect of the mixture of herbicides A and B as calculated from the Colby formula.

[2] = test system: Alopecurus myosuroides (ALOMY)
Procedure: as §1, §2, §3, §4

[3] = test system: Amaranthus retroflexus (AMARE)
Procedure: as §1, §2, §3, §4

[4] = test system: Chenopodium album (CHEAL)
Procedure: as §1, §2, §3, §4

[5] = test system: Digitaria sanguinalis (DIGSA)
Procedure: as §1, §2, §3, §4

[6] = test system: Echinochloa crus-galli (ECHCG)
Procedure: as §1, §2, §3, §4

[7] = test system: Ipomoea hederacea (IPOHE)
Procedure: as §1, §2, §3, §4

[8] = test system: Lolium perenne (LOLPE)
Procedure: as §1, §2, §3, §4

[9] = test system: Setaria faberi (SETFA)
Procedure: as §1, §2, §3, §4

[10] = test system: Stellaria media (STEME)
Procedure: as §1, §2, §3, §4

With `Cc1ccc2ccc(C)c(C3C(=O)C(Cl)=NN(C)C3=O)c2c1` (stereo not shown) [A-I] the “percentage phytotoxicity ABUTH” value ([1]; 0.625 g/ha) was 6%, the “percentage phytotoxicity ABUTH” value ([1]; 2.5 g/ha) was 21% and the “percentage phytotoxicity ABUTH” value ([1]; 5 g/ha) was 58% and 55%. The “percentage phytotoxicity ABUTH” value ([1]; 10 g/ha) was 60%, the “percentage phytotoxicity ALOMY” value ([2]; 0.625 g/ha) was 0% and the “percentage phytotoxicity ALOMY” value ([2]; 1.25 g/ha) was 0%. For the same compound, the “percentage phytotoxicity ALOMY” value ([2]; 2.5 g/ha) was 0%, the “percentage phytotoxicity ALOMY” value ([2]; 5 g/ha) was 9% and 0% and the “percentage phytotoxicity ALOMY” value ([2]; 10 g/ha) was 21%. For the same compound, the “percentage phytotoxicity AMARE” value ([3]; 0.625 g/ha) was 14%, the “percentage phytotoxicity AMARE” value ([3]; 1.25 g/ha) was 44% and the “percentage phytotoxicity AMARE” value ([3]; 2.5 g/ha) was 70%. The “percentage phytotoxicity AMARE” value ([3]; 5 g/ha) was 74%, the “percentage phytotoxicity AMARE” value ([3]; 10 g/ha) was 73% and the “percentage phytotoxicity CHEAL” value ([4]; 0.625 g/ha) was 6%. For the same compound, the “percentage phytotoxicity CHEAL” value ([4]; 2.5 g/ha) was 13% and 16%, the “percentage phytotoxicity CHEAL” value ([4]; 5 g/ha) was 28% and 26% and the “percentage phytotoxicity DIGSA” value ([5]; 0.625 g/ha) was 0% and 1%. The “percentage phytotoxicity DIGSA” value ([5]; 1.25 g/ha) was 0%, the “percentage phytotoxicity DIGSA” value ([5]; 2.5 g/ha) was 3% and 0% and the “percentage phytotoxicity DIGSA” value ([5]; 5 g/ha) was 22% and 21%. For the same compound, the “percentage phytotoxicity ECHCG” value ([6]; 0.625 g/ha) was 0%, the “percentage phytotoxicity ECHCG” value ([6]; 1.25 g/ha) was 0% and the “percentage phytotoxicity ECHCG” value ([6]; 2.5 g/ha) was 8%. For the same compound, the “percentage phytotoxicity ECHCG” value ([6]; 5 g/ha) was 39%, the “percentage phytotoxicity ECHCG” value ([6]; 10 g/ha) was 64% and the “percentage phytotoxicity IPOHE” value ([7]; 0.625 g/ha) was 13%. The “percentage phytotoxicity IPOHE” value ([7]; 2.5 g/ha) was 53% and 48%, the “percentage phytotoxicity IPOHE” value ([7]; 5 g/ha) was 63% and the “percentage phytotoxicity IPOHE” value ([7]; 10 g/ha) was 74%. The “percentage phytotoxicity LOLPE” value ([8]; 0.625 g/ha) was 0% and 3%, the “percentage phytotoxicity LOLPE” value ([8]; 1.25 g/ha) was 0% and 3% and the “percentage phytotoxicity LOLPE” value ([8]; 2.5 g/ha) was 3% and 1%. For the same compound, the “percentage phytotoxicity LOLPE” value ([8]; 10 g/ha) was 43% and 35%, the “percentage phytotoxicity SETFA” value ([9]; 0.625 g/ha) was 0% and the “percentage phytotoxicity SETFA” value ([9]; 1.25 g/ha) was 0%. The “percentage phytotoxicity SETFA” value ([9]; 5 g/ha) was 43%, the “percentage phytotoxicity SETFA” value ([9]; 10 g/ha) was 72% and the “percentage phytotoxicity STEME” value ([10]; 0.625 g/ha) was 34%. For the same compound, the “percentage phytotoxicity STEME” value ([10]; 1.25 g/ha) was 64% and 58%, the “percentage phytotoxicity STEME” value ([10]; 2.5 g/ha) was 66% and the “percentage phytotoxicity STEME” value ([10]; 5 g/ha) was 79%. The “percentage phytotoxicity STEME” value ([10]; 10 g/ha) was 84%.
For `CN1C[C@H](c2cccc(C(F)(F)F)c2)[C@@H](C(=O)Nc2ccccc2F)C1=O` [B-III], the “percentage phytotoxicity ABUTH” value ([1]; 3.125 g/ha) was 10%, the “percentage phytotoxicity ABUTH” value ([1]; 6.25 g/ha) was 4% and the “percentage phytotoxicity ABUTH” value ([1]; 12.5 g/ha) was 3%. The “percentage phytotoxicity ABUTH” value ([1]; 25 g/ha) was 19%, the “percentage phytotoxicity ABUTH” value ([1]; 50 g/ha) was 18% and the “percentage phytotoxicity AMARE” value ([3]; 3.125 g/ha) was 4%. The “percentage phytotoxicity AMARE” value ([3]; 6.25 g/ha) was 6%, the “percentage phytotoxicity AMARE” value ([3]; 12.5 g/ha) was 10% and the “percentage phytotoxicity AMARE” value ([3]; 25 g/ha) was 21%. The “percentage phytotoxicity AMARE” value ([3]; 50 g/ha) was 31%, the “percentage phytotoxicity CHEAL” value ([4]; 3.125 g/ha) was 6% and the “percentage phytotoxicity CHEAL” value ([4]; 6.25 g/ha) was 10%. For the same compound, the “percentage phytotoxicity CHEAL” value ([4]; 12.5 g/ha) was 14%, the “percentage phytotoxicity CHEAL” value ([4]; 25 g/ha) was 44% and the “percentage phytotoxicity CHEAL” value ([4]; 50 g/ha) was 56%. The “percentage phytotoxicity DIGSA” value ([5]; 3.125 g/ha) was 72%, the “percentage phytotoxicity DIGSA” value ([5]; 6.25 g/ha) was 74% and the “percentage phytotoxicity DIGSA” value ([5]; 12.5 g/ha) was 78%. For the same compound, the “percentage phytotoxicity DIGSA” value ([5]; 25 g/ha) was 79%, the “percentage phytotoxicity DIGSA” value ([5]; 50 g/ha) was 80% and the “percentage phytotoxicity ECHCG” value ([6]; 3.125 g/ha) was 70%. For the same compound, the “percentage phytotoxicity ECHCG” value ([6]; 6.25 g/ha) was 70%, the “percentage phytotoxicity ECHCG” value ([6]; 12.5 g/ha) was 73% and the “percentage phytotoxicity ECHCG” value ([6]; 25 g/ha) was 73%. The “percentage phytotoxicity ECHCG” value ([6]; 50 g/ha) was 75%, the “percentage phytotoxicity IPOHE” value ([7]; 3.125 g/ha) was 9% and the “percentage phytotoxicity IPOHE” value ([7]; 6.25 g/ha) was 11%. The “percentage phytotoxicity IPOHE” value ([7]; 12.5 g/ha) was 15%, the “percentage phytotoxicity IPOHE” value ([7]; 25 g/ha) was 24% and the “percentage phytotoxicity IPOHE” value ([7]; 50 g/ha) was 28%. For the same compound, the “percentage phytotoxicity LOLPE” value ([8]; 3.125 g/ha) was 30%, the “percentage phytotoxicity LOLPE” value ([8]; 6.25 g/ha) was 43% and the “percentage phytotoxicity LOLPE” value ([8]; 12.5 g/ha) was 55%. For the same compound, the “percentage phytotoxicity LOLPE” value ([8]; 25 g/ha) was 70%, the “percentage phytotoxicity LOLPE” value ([8]; 50 g/ha) was 75% and the “percentage phytotoxicity SETFA” value ([9]; 3.125 g/ha) was 66%. For the same compound, the “percentage phytotoxicity SETFA” value ([9]; 6.25 g/ha) was 68%, the “percentage phytotoxicity SETFA” value ([9]; 12.5 g/ha) was 70% and the “percentage phytotoxicity SETFA” value ([9]; 25 g/ha) was 74%. The “percentage phytotoxicity SETFA” value ([9]; 50 g/ha) was 73%, the “percentage phytotoxicity STEME” value ([10]; 3.125 g/ha) was 13% and the “percentage phytotoxicity STEME” value ([10]; 6.25 g/ha) was 21%. The “percentage phytotoxicity STEME” value ([10]; 12.5 g/ha) was 14%, the “percentage phytotoxicity STEME” value ([10]; 25 g/ha) was 46% and the “percentage phytotoxicity STEME” value ([10]; 50 g/ha) was 71%.

— US20230284620A1, “MIXTURES OF PYRIDAZINES AS HERBICIDAL COMPOSITIONS” (SYNGENTA CROP PROTECTION AG, priority 2020, published 2023)
